Values of other authors in patent US7494643B2, “Method and topical composition for the treatment of hyperpigmented skin” (priority 2003, dated 2009).

Experiments:
mushroom-tyrosinases = details: competitive inhibition; cited from earlier work
human-tyrosinase = target: T1, human-tyrosinase (Homo sapiens, UniProt P14679); details: competitive inhibition; cited from earlier work
T1 sequence (P14679 19-529): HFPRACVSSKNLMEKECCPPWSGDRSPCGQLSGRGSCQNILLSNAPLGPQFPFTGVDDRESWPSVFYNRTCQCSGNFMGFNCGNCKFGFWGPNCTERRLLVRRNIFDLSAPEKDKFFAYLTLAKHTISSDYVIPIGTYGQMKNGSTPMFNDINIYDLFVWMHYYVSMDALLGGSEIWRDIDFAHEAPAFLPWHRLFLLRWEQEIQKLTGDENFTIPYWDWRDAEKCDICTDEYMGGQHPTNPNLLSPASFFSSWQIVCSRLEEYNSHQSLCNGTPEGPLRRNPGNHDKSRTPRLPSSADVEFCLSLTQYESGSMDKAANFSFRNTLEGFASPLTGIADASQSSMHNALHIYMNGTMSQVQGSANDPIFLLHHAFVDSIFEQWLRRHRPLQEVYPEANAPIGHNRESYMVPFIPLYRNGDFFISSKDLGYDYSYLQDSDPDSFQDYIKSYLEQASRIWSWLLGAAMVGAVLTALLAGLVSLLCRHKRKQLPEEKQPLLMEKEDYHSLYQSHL

[1] = tested on: tyrosinase isolated from black goldfish and standard goldfish; details: cited from earlier work
cultured pigment cells = details: cited from earlier work
black goldfish = details: ingested by the fish; cited from earlier work
melanocytes = details: cited from earlier work
HIV = details: NCI primary screen; cited from earlier work

In the case of `OC[C@H]1O[C@@H](Oc2ccc(O)cc2)[C@H](O)[C@@H](O)[C@@H]1O` [Arbutin], the “inhibition of enzyme activity of mushroom tyrosinase” value (mushroom-tyrosinases) is given as “inhibits enzyme activity” and the “inhibition of enzyme activity of human tyrosinase” value (human-tyrosinase) is given as “inhibits enzyme activity”.
In the case of `O=c1cc(CO)occ1O` [Kojic acid], the inhibition of tyrosinase [1] is given as “inhibit tyrosinase”, the suppression of melanogenesis (cultured pigment cells) is given as “suppress melanogenesis” and the “colour of black goldfish after ingestion” value (black goldfish) is given as “almost yellow-brown”.
For `Oc1ccc(O)cc1` [hydroquinone], the “cytotoxicity (destroys the cellular walls of the melanocytes)” value (melanocytes) is given as “cytotoxic”.
For Vismiaphenone D, the HIV-inhibitory activity (HIV) is listed as “HIV-inhibitory activity”.
